ChEMBL document CHEMBL1146723, “Synthesis of benzophenone oxime analogues as inhibitor of secretory phospholipase A(2) with anti-inflammatory activity” (2004)
“And” between values parts separate entries of the source, which are not always exact repeats. Equal values may be shown once. The source made the active and inactive calls. The rule behind the calls is not given here.

Tests used:
[1] = tested on: Mus musculus; assay: Antiinflammatory activity was evaluated for the increase in weight due to edema was calculated as edema ratio; assay type: functional
[2] = tested on: Trimeresurus malabaricus; assay: Percentage inhibitory activity against Phospholipase A2 isolated from venom of Trimeresurus malabaricus; NI = No inhibition
[3] = tested on: Daboia russellii; assay: (§1) Percentage inhibitory activity against Phospholipase A2 isolated from venom of Vipera russelli; conditions: concentration not given here
[4] = tested on: Naja naja; assay: (§2) Percentage inhibitory activity against Phospholipase A2 isolated from venom of Naja naja; conditions: concentration not given here
[5] = tested on: Trimeresurus malabaricus; assay: (§3) Percentage inhibitory activity against Phospholipase A2 isolated from venom of Trimeresurus malabaricus; conditions: concentration not given here
[6] = target: Phospholipase A2, major isoenzyme (Sus scrofa) (UniProt P00592); assay: as §3; conditions: concentration not given here
[7] = target: Phospholipase A2, major isoenzyme (Sus scrofa) (UniProt P00592); assay: as §1; conditions: Daboia russellii; concentration not given here
[8] = target: Phospholipase A2, major isoenzyme (Sus scrofa) (UniProt P00592); assay: as §2; conditions: concentration not given here

Chain of Phospholipase A2, major isoenzyme (Sus scrofa) (P00592 23-146 limits assumed): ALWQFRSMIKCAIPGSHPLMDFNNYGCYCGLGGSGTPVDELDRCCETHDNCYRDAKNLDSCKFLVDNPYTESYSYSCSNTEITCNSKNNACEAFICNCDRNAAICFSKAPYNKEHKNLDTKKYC

| Structure (SMILES) | Edema ratio [1] | inhibition [2] | inhibition [3] [%] | inhibition [4] [%] | inhibition [5] [%] | inhibition [6] [%] | inhibition [7] [%] | inhibition [8] [%] |
| --- | --- | --- | --- | --- | --- | --- | --- | --- |
| COc1cccc(C(=NO)c2cccc(OC)c2)c1 | 136 and 142 and 181 and 147 and 149 | inactive | 58.7 | 36.9 | – | – | – | – |
| Cc1cccc(/C(=N/O)c2ccccc2)c1 | 102 and 110 and 101 and 103 and 109 | – | 79.2 | 82.9 | 81.6 | – | – | – |
| COc1ccc(/C(=N/O)c2ccccc2)cc1 | 180 and 142 and 183 and 147 and 151 | inactive | 29.9 | 42.4 | – | – | – | – |
| COc1ccc(/C(=N/O)c2cccc(Cl)c2)cc1OC | 101 and 109 and 105 and 106 and 107 | – | – | – | – | 72.4 | 85.3 | 90.2 |
